Assay results as given in publication PMC4980083 (JCI insight, 2016).

Columns and labels:
LNCaP95 cells [1] = test: LNCaP95 proliferation, BrdU incorporation; format: cell-based, human; settings: I-EPI-002 2 μM, EPI-002 25 μM, enzalutamide 5 μM; 2 days
LNCaP95 cells [2] = test: Cell cycle analysis of LNCaP95 cells; format: cell-based, human; settings: I-EPI-002 5 μM, EPI-002 25 μM, 48 hours
recombinant AR AF-1 = target: T1, recombinant AR AF-1 (Homo sapiens, UniProt P10275); test: Cell-free binding to recombinant AR AF-1, competition with cold EPI-002; settings: preincubation with 60 μM EPI-002 for 6 hours
T1 sequence (P10275 142-485): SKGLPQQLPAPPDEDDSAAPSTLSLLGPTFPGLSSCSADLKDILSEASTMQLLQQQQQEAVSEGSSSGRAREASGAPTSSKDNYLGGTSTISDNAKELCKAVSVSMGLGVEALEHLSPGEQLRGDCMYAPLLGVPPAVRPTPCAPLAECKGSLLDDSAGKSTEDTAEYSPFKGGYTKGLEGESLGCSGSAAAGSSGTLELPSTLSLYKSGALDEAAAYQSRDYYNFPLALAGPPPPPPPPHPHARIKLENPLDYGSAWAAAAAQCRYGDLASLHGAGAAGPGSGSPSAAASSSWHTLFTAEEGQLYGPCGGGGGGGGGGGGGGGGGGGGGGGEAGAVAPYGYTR

recombinant AR LBD = target: T2, recombinant AR LBD (Homo sapiens, UniProt P10275); test: Fluorescence polarization competition binding, AR LBD; settings: 1 nM fluorescently labeled ligand, AR LBD 25 nM
T2 sequence (P10275 669-900 limits assumed): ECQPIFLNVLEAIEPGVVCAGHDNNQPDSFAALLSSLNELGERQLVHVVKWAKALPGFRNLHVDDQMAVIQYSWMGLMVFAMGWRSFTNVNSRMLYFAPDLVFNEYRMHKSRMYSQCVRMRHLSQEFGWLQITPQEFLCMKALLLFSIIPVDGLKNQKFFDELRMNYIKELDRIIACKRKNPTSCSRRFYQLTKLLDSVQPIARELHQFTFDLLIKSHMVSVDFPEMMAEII

[3] = target: T3, endogenous full-length AR (Homo sapiens, UniProt P10275, T878A); test: AR transcriptional activity, PSA
T3 sequence (P10275 1-920 T878A): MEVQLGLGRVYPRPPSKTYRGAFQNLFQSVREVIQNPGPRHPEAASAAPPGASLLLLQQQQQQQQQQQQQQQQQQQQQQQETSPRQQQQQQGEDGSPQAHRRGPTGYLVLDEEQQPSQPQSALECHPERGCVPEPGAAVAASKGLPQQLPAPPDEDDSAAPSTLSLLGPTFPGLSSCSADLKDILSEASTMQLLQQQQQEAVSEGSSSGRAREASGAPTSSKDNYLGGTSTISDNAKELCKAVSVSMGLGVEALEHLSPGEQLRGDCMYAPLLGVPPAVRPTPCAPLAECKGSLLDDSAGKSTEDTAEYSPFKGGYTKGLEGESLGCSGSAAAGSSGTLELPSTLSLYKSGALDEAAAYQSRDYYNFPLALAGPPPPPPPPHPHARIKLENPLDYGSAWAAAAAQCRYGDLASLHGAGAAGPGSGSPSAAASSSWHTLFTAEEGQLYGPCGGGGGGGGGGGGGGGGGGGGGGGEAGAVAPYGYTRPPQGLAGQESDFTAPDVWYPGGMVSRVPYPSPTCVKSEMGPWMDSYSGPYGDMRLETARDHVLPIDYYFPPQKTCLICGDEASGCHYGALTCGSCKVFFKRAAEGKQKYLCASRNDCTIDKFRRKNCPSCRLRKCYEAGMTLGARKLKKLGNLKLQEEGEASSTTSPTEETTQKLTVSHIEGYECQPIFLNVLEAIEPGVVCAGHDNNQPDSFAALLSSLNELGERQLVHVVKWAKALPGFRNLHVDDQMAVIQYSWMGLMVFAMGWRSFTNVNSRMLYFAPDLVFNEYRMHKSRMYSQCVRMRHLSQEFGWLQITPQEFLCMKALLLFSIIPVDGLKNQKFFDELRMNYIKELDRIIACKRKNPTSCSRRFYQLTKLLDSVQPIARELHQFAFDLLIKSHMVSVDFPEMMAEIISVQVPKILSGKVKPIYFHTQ

LNCaP95 cells [4] = test: Western blot of cell cycle G1/S-related proteins in LNCaP95 cells; format: cell-based, human; settings: enzalutamide 5 μM, EPI-002 25 μM, I-EPI-002 5 μM; 48 hours

displacement of ^123I-EPI-002 binding to AF-1 (recombinant AR AF-1)	competition with fluoromone for binding to AR LBD (recombinant AR LBD)	inhibition of AR transcriptional activity ([3]; 25 μM, R1881 1 nM) [%]	inhibition of AR transcriptional activity with increasing concentrations of androgen ([3]; increasing R1881, enzalutamide 5 μM, I-EPI-002 5 μM, EPI-002 25 μM)	Compound	effect on proliferation of LNCaP95 cells (LNCaP95 cells [1])	decrease of S phase cells (LNCaP95 cells [2]) [fold]	expression of UBE2C, cyclinD3 and cyclin-dependent kinases (CDKs) (LNCaP95 cells [4])	protein expression of the CDK inhibitor p27kip1 (LNCaP95 cells [4])
displaced binding	did not prevent ligand-binding	~75	maintained effective inhibition	CC(C)(c1ccc(OC[C@H](O)CO)cc1)c1ccc(OC[C@H](O)CCl)cc1 [EPI-002, reference compound]	decreased proliferation	≥ 2	–	–
–	–	–	–	CNC(=O)c1ccc(N2C(=S)N(c3ccc(C#N)c(C(F)(F)F)c3)C(=O)C2(C)C)cc1F [enzalutamide]	–	–	had no effect	had no effect
